Where a name gives a salt, the structure may show the parent alone.
Experiments:
[1] = tested on: central effects of 5-hydroxytryptophan; experiment: Potentiation of the central effects of 5-hydroxytryptophan (5-HTP); assay type: in vivo; conditions: Mus musculus, ip; Swiss mice, I.P., 30 minutes before 300 mg/kg 5-HTP I.P.; observed 30 min later for 1 min; read-out: Potentiation of the 5-HTP ED50 DE50
Procedure: This potentiation objectifying the axonal blocking of the reabsorption of the seratonin at the serotoninergic nerve ends was studied by the method described by T. M. Pugsley and […] The mice are observed 30 min later, for 1 min, during which the following sterotyped movements are classified: extension of the hind paws, trembling, excitement, head shaking.

[2] = Acute oral toxicity, lethal doses 50 (LD50); conditions: mouse, in vivo

SMILES	ED50 [1] [mg/kg]	LD50 [2] [mg/kg]
O=c1c2ccccc2nnn1CCCN1CCN(c2cccc(Cl)c2)CC1 [Example 1, [[(chloro-3 phenyl)-4 piperazinyl-1]-3 propyl]-3-3H-benzotriazine-1,2,3 one-4, hydrochloride]	3	> 3200
O=c1c2ccccc2nnn1CCCN1CCN(c2ccccc2Cl)CC1 [Example 6, [[(Chloro-2 phenyl-4 piperazinyl-1]-3 propyl]3-3H-benzotriazine-1,2,3 one 4, hydrochloride]	12	–
Cc1ccccc1N1CCN(CCCn2nnc3ccccc3c2=O)CC1 [Example 9, [[(Methyl-2 phenyl)-4 piperazinyl-1]-3 propyl]-3-3H-benzotriazine-1,2,3 one-4 hydrochloride]	5	–
O=c1c2ccccc2nnn1CCCN1CCN(c2cccc(F)c2)CC1 [Example 10, [[(Fluoro-3phenyl)-4 piperazinyl-1]-3 propyl]-3H-benzotriazine-1,2,3 one-4, hydrochloride]	14	1500
O=c1c2ccccc2nnn1CCCN1CCN(c2ccccc2)CC1 [Example 11, [(Phenyl-4 piperazinyl-1)-3 propyl]-3-3H-benzotriazine-1,2,3 one-4 hydrochloride]	8	1000
COc1cccc(N2CCN(CCCn3nnc4ccccc4c3=O)CC2)c1 [Example 15, [[(Methoxy-3 phenyl)-4 piperazinyl-1]-3 propyl]-3-3H-benzotriazine-1,2,3 one-4]	9	–
COc1ccc(N2CCN(CCCn3nnc4ccccc4c3=O)CC2)cc1 [Example 16, [[(Methoxy-4 phenyl)-4 piperazinyl-1]-3propyl]-3-3H-benzotriazine-1,2,3 one-4]	11	–
O=c1c2ccc(Cl)cc2nnn1CCCN1CCN(c2cccc(Cl)c2)CC1 [Example 19, Chloro-7 [[(chloro-3 phenyl)-4 piperazinyl-1]-3 propyl]-3-3H-benzotriazine-1,2,3 one-4 hydrochloride]	10	–
Cc1ccc2nnn(CCCN3CCN(c4cccc(Cl)c4)CC3)c(=O)c2c1 [Example 20, [[(Chloro-3 phenyl)-1 piperazinyl-1]-3 propyl]-3 methyl-6-3H-benzotriazine-1,2,3 one-4, hydrochloride]	8	> 3200
O=c1c2ccsc2nnn1CCCN1CCN(c2cccc(Cl)c2)CC1 [Example 23, [[(Chloro-3 phenyl)-4-piperazinyl-1]3 propyl]-3-3H-thieno[2,3-d]triazine-1,2,3 one-4 hydrochloride]	3	1060
O=c1c2ccccc2nnn1CCCN1CCN(c2ccc(F)c(Cl)c2)CC1 [Example 27, [[(Chloro-3 fluoro-4 phenyl)-4 piperazinyl-1]-3 propyl]-3-3H-benzotriazine-1,2,3 one-4 hydrochloride]	8	–
O=c1c2cc(Cl)ccc2nnn1CCCN1CCN(c2ccccc2)CC1 [Example 28, Chloro-6[(phenyl-4 piperazinyl-1)-3 propyl]-3-3H-benzotriazine-1,2,3 one-4 dihyrochloride]	5	–
COc1ccc(N2CCN(CCCn3nnc4ccccc4c3=O)CC2)cc1OC [Example 29, [[(Dimethoxy-3,4 phenyl)-4 piperazinyl-1]-3 propyl]-3-3H-benzotriazine-1,2,3 one-4 dihydrochloride]	12	–
Cl.O=c1n(CCCN2CCN(c3cccc(Cl)c3)CC2)nc2ccccn12 [Trazodone Hydrochloride, 2-[3-[4-(3-chlorophenyl)-1-piperazinyl]propyl]-1,2,4-triazolo[4,3-a]pyridin-3 (2H)-one hydrochloride, reference compound]	–	650
